Test system: plants
Experiment: Test D pre-emergence, other plants of Tables D1 and D3
Type: in vivo
Details: pre-emergence, 100=total damage, 0=no damage
Outline: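 Damage was rated visually from 0 (none) to 100 (total), at 20 DAA for pre-emergence and 15 d for post-emergence. Plants grew from safener-treated seed in a glasshouse at 24/18° C. or 20/16° C. day/night, 65% humidity, watered twice daily.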

CN1CC(c2cc(C(F)(F)F)n(C)n2)C(C(=O)Nc2ccc(F)nc2F)C1=O (racemic) [Compound 22]
damage to plant, ALOMY (rate 15, 20 DAA): 0 | damage to plant, AVEFA (rate 15, 20 DAA): 0 | damage to plant, BEAVA (rate 15, 20 DAA): 0 | damage to plant, BROTE (rate 15, 20 DAA): 0 | damage to plant, BRSNN (rate 15, 20 DAA): 0 | damage to plant, CHEAL (rate 15, 20 DAA): 0 | damage to plant, GALAP (rate 15, 20 DAA): 0 | damage to plant, HORVW (rate 15, 20 DAA): 0 | damage to plant, KCHSC (rate 15, 20 DAA): 0 | damage to plant, LOLPE (rate 15, 20 DAA): 0 | damage to plant, POAAN (rate 15, 20 DAA): 0 | damage to plant, POLCO (rate 15, 20 DAA): 0 | damage to plant, SINAR (rate 15, 20 DAA): 0 | damage to plant, STEME (rate 15, 20 DAA): 0 | damage to plant, VERPE (rate 15, 20 DAA): 0 | damage to plant, ALOMY (rate 30, 20 DAA): 0 | damage to plant, AVEFA (rate 30, 20 DAA): 0 | damage to plant, BEAVA (rate 30, 20 DAA): 0 | damage to plant, BROTE (rate 30, 20 DAA): 0 | damage to plant, BRSNN (rate 30, 20 DAA): 0 | damage to plant, CHEAL (rate 30, 20 DAA): 0 | damage to plant, GALAP (rate 30, 20 DAA): 0 | damage to plant, HORVW (rate 30, 20 DAA): 0 | damage to plant, KCHSC (rate 30, 20 DAA): 0 | damage to plant, LOLPE (rate 30, 20 DAA): 0 | damage to plant, POAAN (rate 30, 20 DAA): 0 | damage to plant, POLCO (rate 30, 20 DAA): 0 | damage to plant, SINAR (rate 30, 20 DAA): 0 | damage to plant, STEME (rate 30, 20 DAA): 0 | damage to plant, VERPE (rate 30, 20 DAA): 0 | damage to plant, ALOMY (rate 60, 20 DAA): 0 | damage to plant, AVEFA (rate 60, 20 DAA): 0 | damage to plant, BEAVA (rate 60, 20 DAA): 0 | damage to plant, BROTE (rate 60, 20 DAA): 0 | damage to plant, BRSNN (rate 60, 20 DAA): 0 | damage to plant, CHEAL (rate 60, 20 DAA): 20 | damage to plant, GALAP (rate 60, 20 DAA): 0 | damage to plant, HORVW (rate 60, 20 DAA): 0 | damage to plant, KCHSC (rate 60, 20 DAA): 0 | damage to plant, LOLPE (rate 60, 20 DAA): 0 | damage to plant, POAAN (rate 60, 20 DAA): 0 | damage to plant, POLCO (rate 60, 20 DAA): 0 | damage to plant, SINAR (rate 60, 20 DAA): 0 | damage to plant, STEME (rate 60, 20 DAA): 10 | damage to plant, VERPE (rate 60, 20 DAA): 0 | damage to plant, ALOMY (rate 130, 20 DAA): 0 | damage to plant, AVEFA (rate 130, 20 DAA): 0 | damage to plant, BEAVA (rate 130, 20 DAA): 0 | damage to plant, BROTE (rate 130, 20 DAA): 0 | damage to plant, BRSNN (rate 130, 20 DAA): 0 | damage to plant, CHEAL (rate 130, 20 DAA): 10 | damage to plant, GALAP (rate 130, 20 DAA): 0 | damage to plant, HORVW (rate 130, 20 DAA): 0 | damage to plant, KCHSC (rate 130, 20 DAA): 0 | damage to plant, LOLPE (rate 130, 20 DAA): 10 | damage to plant, POAAN (rate 130, 20 DAA): 20 | damage to plant, POLCO (rate 130, 20 DAA): 0 | damage to plant, SINAR (rate 130, 20 DAA): 0 | damage to plant, STEME (rate 130, 20 DAA): 10 | damage to plant, VERPE (rate 130, 20 DAA): 20 | damage to plant, ALOMY (rate 250, 20 DAA): 0 | damage to plant, AVEFA (rate 250, 20 DAA): 0 | damage to plant, BEAVA (rate 250, 20 DAA): 0 | damage to plant, BROTE (rate 250, 20 DAA): 0 | damage to plant, BRSNN (rate 250, 20 DAA): 0 | damage to plant, CHEAL (rate 250, 20 DAA): 80 | damage to plant, GALAP (rate 250, 20 DAA): 0 | damage to plant, HORVW (rate 250, 20 DAA): 0 | damage to plant, KCHSC (rate 250, 20 DAA): 0 | damage to plant, LOLPE (rate 250, 20 DAA): 20 | damage to plant, POAAN (rate 250, 20 DAA): 40 | damage to plant, POLCO (rate 250, 20 DAA): 10 | damage to plant, SINAR (rate 250, 20 DAA): 0 | damage to plant, STEME (rate 250, 20 DAA): 30 | damage to plant, VERPE (rate 250, 20 DAA): 30 | damage to plant, ALOMY (rate 500, 20 DAA): 20 | damage to plant, AVEFA (rate 500, 20 DAA): 0 | damage to plant, BEAVA (rate 500, 20 DAA): 0 | damage to plant, BROTE (rate 500, 20 DAA): 0 | damage to plant, BRSNN (rate 500, 20 DAA): 0 | damage to plant, CHEAL (rate 500, 20 DAA): 40 | damage to plant, GALAP (rate 500, 20 DAA): 0 | damage to plant, HORVW (rate 500, 20 DAA): 0 | damage to plant, KCHSC (rate 500, 20 DAA): 0 | damage to plant, LOLPE (rate 500, 20 DAA): 30 | damage to plant, POAAN (rate 500, 20 DAA): 60 | damage to plant, POLCO (rate 500, 20 DAA): 20 | damage to plant, SINAR (rate 500, 20 DAA): 0 | damage to plant, STEME (rate 500, 20 DAA): 40 | damage to plant, VERPE (rate 500, 20 DAA): 100
